Laboratory results published in publication PMC8822125, “RW-BP100-4D, a Promising Antimicrobial Candidate With Broad-Spectrum Bactericidal Activity” (Frontiers in Microbiology, 2022).
Where a SMILES comes first, the peptide text is derived from it.

Key:
[1] = tested on: E. coli ATCC25922, S. aureus ATCC29213, and C. albicans ATCC10231; assay: Stress stability, fold change of MIC against the three reference strains; assay type: cell-based; conditions: proteinase K 1 mg/mL, 37°C, 1 h
Fusarium oxysporum LD21 = assay: MIC/MBC, broth microdilution (CLSI M38); assay type: cell-based
E. coli ATCC25922 = conditions: 1 h, mean of three
[2] = tested on: Streptococcus agalactiae ATCC13813; conditions: mean of three repeated experiments
Method: (§1) To compare the antibacterial activity of RW-BP100 and its serial derivatives, the MIC against S. aureus ATCC29213 and E. coli ATCC25922 were determined using broth microdilution method according to the guidelines of Clinical and Laboratory Standards Institute (CLSI) M100-S25 ([CLSI, 2015]). Briefly, peptides were dissolved in sterilized water and twofold diluted in Mueller-Hinton (MH) broth (Beijing Land Bridge Technology) at the concentration ranges of 0.098–100 μg/mL. Then the peptides were mixed with an equal volume (100 μL) of bacterial suspensions of 10^6 CFU/mL in a sterilized 96-well microtiter plate. […] To further evaluate the antimicrobial spectrum of RW-BP100-4D, MICs were determined against a more variety of Gram-positive and Gram-negative bacterial species, and the fungal strains (according to CLSI M38 guideline). […] MIC and MBC testing were performed with three independent repeats.

[3] = tested on: Listeria monocytogenes LM08; conditions: Listeria monocytogenes LM08 (tetM); mean of three repeated experiments
Method: as §1

[4] = tested on: Shewanella putrefaction ATCC49138; conditions: mean of three repeated experiments
Method: as §1

[5] = tested on: Klebsiella pneumoniae XG-Kpn03; conditions: Klebsiella pneumoniae XG-Kpn03 (blaNDM-5); mean of three repeated experiments
Method: as §1

[6] = tested on: Campylobacter jejuni ATCC33291; conditions: mean of three repeated experiments
Method: as §1

[7] = tested on: Listeria monocytogenes ATCC19115; conditions: mean of three repeated experiments
Method: as §1

Escherichia coli XG-E1 = Escherichia coli XG-E1 (blaNDM-5, mcr-1); mean of three repeated experiments
Method: as §1

[8] = tested on: Pseudomonas fluorescens AC04; conditions: mean of three repeated experiments
Method: as §1

Enterococcus faecalis 32 = Enterococcus faecalis 32 (optrA); mean of three repeated experiments
Method: as §1

[9] = tested on: Pseudomonas aeruginosa 42; conditions: mean of three repeated experiments
Method: as §1

[10] = tested on: Acinetobacter baumannii 34AB; conditions: Acinetobacter baumannii 34AB (tet(X3)); mean of three repeated experiments
Method: as §1

[11] = tested on: Salmonella enterica ATCC13076; conditions: mean of three repeated experiments
Method: as §1

[12] = tested on: Enterococcus faecalis JH2-2; conditions: mean of three repeated experiments
Method: as §1

CC[C@H](C)[C@H](NC(=O)[C@H](CCCNC(=N)N)NC(=O)[C@H](CCCNC(=N)N)NC(=O)[C@@H](Cc1ccccc1)NC(=O)[C@H](CC(C)C)NC(=O)[C@H](CCCNC(=N)N)NC(=O)[C@@H](N)CCCNC(=N)N)C(=O)N[C@@H](CC(C)C)C(=O)N[C@@H](CCCNC(=N)N)C(=O)N[C@@H](Cc1c[nH]c2ccccc12)C(=O)N[C@@H](CC(C)C)C(N)=O [RW-BP100-4D] (HELM PEPTIDE1{R.R.L.[dF].R.R.I.L.R.W.L.[am]}$$$$V2.0)
3 µg/mL: MIC of peptides [2] | MIC of peptides [3] | MIC of peptides [7] | MIC of peptides (Escherichia coli XG-E1) | MIC of peptides [11]
6 µg/mL: MIC of RW-BP100-4D against E. coli ATCC25922 after 40-80 ℃ (E. coli ATCC25922; 100 μg/mL peptide in PBS, pH 7, 40-80 ℃, then broth microdilution) | MIC of RW-BP100-4D against E. coli ATCC25922 after pH 2-7 (E. coli ATCC25922; 100 μg/mL peptide, pH 2-7, 37°C, then adjusted to pH 7.0) | MBC of peptides [2] | MBC of peptides [3] | MIC of peptides [4] | MIC of peptides [6] | MBC of peptides [7] | MBC of peptides (Escherichia coli XG-E1) | MIC of peptides [8] | MIC of peptides [10] | MBC of peptides [11]
25 µg/mL: MBC of peptides (Fusarium oxysporum LD21; mean of three repeated experiments) | MIC of RW-BP100-4D against E. coli ATCC25922 after 100 ℃ (E. coli ATCC25922; 100 μg/mL peptide in PBS, pH 7, 100 ℃) | MIC of peptides [5]
50 µg/mL: MBC of peptides [5] | MBC of peptides (Enterococcus faecalis 32) | MBC of peptides [9] | MBC of peptides [12]
4–8 fold: MICs after treatment with proteinase K, fold of the original level [1]
12 µg/mL: MIC of peptides (Fusarium oxysporum LD21; CLSI M38, mean of three repeated experiments) | MIC of RW-BP100-4D against E. coli ATCC25922 after 90 ℃ (E. coli ATCC25922; 100 μg/mL peptide in PBS, pH 7, 90 ℃) | MIC of RW-BP100-4D against E. coli ATCC25922 after pH 8-9 (E. coli ATCC25922; 100 μg/mL peptide, pH 8-9, 37°C, then adjusted to pH 7.0) | MBC of peptides [4] | MBC of peptides [6] | MBC of peptides [8] | MIC of peptides (Enterococcus faecalis 32) | MIC of peptides [9] | MBC of peptides [10] | MIC of peptides [12]
>50 µg/mL: MIC of RW-BP100-4D against E. coli ATCC25922 after papain (E. coli ATCC25922; 100 μg/mL peptide with papain 1 mg/mL, 37°C, protease inactivated 80°C 30 min) | MIC of RW-BP100-4D against E. coli ATCC25922 after calf serum (E. coli ATCC25922; 100 μg/mL peptide with sterile calf serum, 37°C, serum inactivated 80°C 30 min) | MIC of RW-BP100-4D against E. coli ATCC25922 after trypsin (E. coli ATCC25922; 100 μg/mL peptide with trypsin 1 mg/mL, 37°C, protease inactivated 80°C 30 min)
